Measurements taken from US8846686B2, “Compounds useful as inhibitors of ATR kinase” (Vertex Pharmaceuticals Incorporated, priority 2011, dated 2014).
pIC50, pKi: −log10 of the molar value.

Columns and labels:
[1] = system: HCT116 colorectal cancer cells; experiment: Single agent HCT116 activity, 96 h cell viability (MTS) assay; assay type: cell-based; details: Homo sapiens, HCT-116; 96 h MTS cell viability; read-out: Single agent HT116 IC50
Method: Compounds can be screened for single agent activity against HCT116 colorectal cancer cells using a 96 h cell viability (MTS) assay. HCT116 are plated at 470 cells per well in 96-well polystyrene plates (Costar 3596) in 150 μl of McCoy's 5A media (Sigma M8403) supplemented with 10% foetal bovine serum (JRH Biosciences 12003), Penicillin/Streptomycin solution diluted 1:100 (Sigma P7539), and 2 mM L-glumtamine (Sigma G7513), and allowed to adhere overnight at 37° C. in 5% CO2. Compounds are then added to the cell media in 2-fold serial dilutions from a top final concentration of 10 μM as a full matrix of concentrations in a final cell volume of 200 μl, and the cells are then incubated at 37° C. in 5% CO2. After 96 h, 40 μl of MTS reagent (Promega G358a) is added to each well and the cells are incubated for 1 h at 37° C. in 5% CO2. Finally, absorbance is measured at 490 nm using a SpectraMax Plus 384 reader (Molecular Devices) and IC50 values can be calculated.

full-length ATR = molecular target: T1, full-length ATR (Homo sapiens, UniProt Q13535); experiment: ATR inhibition assay (radioactive-phosphate incorporation); assay type: biochemical; details: Ki(app), 5 nM full-length ATR, 10 μM ATP
T1 construct: Assays are carried out at 25° C. in the presence of 5 nM full-length ATR
T1 sequence (Q13535 whole entry): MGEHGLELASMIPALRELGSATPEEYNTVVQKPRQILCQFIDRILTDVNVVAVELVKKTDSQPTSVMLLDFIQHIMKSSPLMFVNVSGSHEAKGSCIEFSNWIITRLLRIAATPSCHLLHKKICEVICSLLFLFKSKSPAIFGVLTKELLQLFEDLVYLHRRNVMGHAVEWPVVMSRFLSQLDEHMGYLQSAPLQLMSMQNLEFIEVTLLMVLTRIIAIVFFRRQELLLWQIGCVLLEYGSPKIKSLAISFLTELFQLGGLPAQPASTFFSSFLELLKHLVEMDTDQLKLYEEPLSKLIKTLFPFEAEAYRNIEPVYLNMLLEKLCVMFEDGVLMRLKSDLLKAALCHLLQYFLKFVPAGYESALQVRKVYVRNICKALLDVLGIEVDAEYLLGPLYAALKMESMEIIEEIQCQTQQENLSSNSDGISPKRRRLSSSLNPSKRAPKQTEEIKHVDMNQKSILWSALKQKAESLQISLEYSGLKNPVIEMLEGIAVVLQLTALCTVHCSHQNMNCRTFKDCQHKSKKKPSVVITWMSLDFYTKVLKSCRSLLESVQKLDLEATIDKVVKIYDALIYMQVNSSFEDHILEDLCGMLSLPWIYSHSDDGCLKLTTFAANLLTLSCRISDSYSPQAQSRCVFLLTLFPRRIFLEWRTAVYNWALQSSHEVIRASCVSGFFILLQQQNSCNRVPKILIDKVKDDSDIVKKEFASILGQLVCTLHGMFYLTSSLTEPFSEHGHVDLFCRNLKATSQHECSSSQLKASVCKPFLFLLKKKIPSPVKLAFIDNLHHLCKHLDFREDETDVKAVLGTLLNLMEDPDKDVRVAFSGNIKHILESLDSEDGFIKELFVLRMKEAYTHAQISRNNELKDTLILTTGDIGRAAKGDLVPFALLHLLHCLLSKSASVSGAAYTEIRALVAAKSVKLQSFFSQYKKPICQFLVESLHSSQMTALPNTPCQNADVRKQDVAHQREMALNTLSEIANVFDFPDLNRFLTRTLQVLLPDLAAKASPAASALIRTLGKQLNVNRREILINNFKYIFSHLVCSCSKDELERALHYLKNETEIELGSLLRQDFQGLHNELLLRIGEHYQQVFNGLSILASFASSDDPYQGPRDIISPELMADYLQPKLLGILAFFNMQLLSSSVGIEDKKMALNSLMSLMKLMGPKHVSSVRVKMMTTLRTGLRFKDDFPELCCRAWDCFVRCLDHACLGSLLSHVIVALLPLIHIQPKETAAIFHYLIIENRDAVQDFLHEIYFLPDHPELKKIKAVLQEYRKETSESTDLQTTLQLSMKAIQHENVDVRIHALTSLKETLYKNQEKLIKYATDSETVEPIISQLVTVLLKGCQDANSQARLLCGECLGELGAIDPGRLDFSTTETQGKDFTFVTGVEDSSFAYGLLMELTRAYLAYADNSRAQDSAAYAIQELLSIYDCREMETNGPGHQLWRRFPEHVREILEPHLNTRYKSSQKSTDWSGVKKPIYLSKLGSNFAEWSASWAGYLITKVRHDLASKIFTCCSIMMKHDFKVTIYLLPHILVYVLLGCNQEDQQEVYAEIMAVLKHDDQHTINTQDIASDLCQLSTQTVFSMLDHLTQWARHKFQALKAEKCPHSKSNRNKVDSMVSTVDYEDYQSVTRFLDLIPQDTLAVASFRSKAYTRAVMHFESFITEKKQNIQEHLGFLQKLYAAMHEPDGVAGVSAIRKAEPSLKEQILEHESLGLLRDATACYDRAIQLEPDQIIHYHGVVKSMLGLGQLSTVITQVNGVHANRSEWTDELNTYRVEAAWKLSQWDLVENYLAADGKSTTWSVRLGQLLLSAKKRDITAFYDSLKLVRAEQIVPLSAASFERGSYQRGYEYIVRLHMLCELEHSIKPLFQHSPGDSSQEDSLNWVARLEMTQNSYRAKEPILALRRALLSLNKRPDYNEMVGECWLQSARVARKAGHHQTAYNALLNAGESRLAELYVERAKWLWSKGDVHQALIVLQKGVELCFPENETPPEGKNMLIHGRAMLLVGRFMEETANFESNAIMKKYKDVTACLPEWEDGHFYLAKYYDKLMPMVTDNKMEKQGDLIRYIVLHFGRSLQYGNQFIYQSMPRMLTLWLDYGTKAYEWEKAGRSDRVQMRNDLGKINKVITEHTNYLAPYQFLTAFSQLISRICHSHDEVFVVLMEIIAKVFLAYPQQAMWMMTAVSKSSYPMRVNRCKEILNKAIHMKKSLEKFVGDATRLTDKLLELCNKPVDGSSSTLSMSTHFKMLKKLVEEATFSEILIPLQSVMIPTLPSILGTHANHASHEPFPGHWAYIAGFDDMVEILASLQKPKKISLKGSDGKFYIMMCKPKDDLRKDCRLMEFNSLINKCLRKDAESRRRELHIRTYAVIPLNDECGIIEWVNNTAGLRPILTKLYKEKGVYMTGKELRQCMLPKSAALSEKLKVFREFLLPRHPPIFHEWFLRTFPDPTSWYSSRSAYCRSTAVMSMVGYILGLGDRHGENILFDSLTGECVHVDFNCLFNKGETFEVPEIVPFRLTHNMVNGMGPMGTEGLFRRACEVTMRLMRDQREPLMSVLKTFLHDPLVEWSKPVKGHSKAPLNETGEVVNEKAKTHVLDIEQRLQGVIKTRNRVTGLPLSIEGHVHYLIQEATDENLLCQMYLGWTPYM
Method: Compounds can be screened for their ability to inhibit ATR kinase using a radioactive-phosphate incorporation assay. Assays are carried out in a mixture of 50 mM Tris/HCl (pH 7.5), 10 mM MgCl2 and 1 mM DTT. Final substrate concentrations are 10 μM [γ-33P]ATP (3 mCi ^33P ATP/mmol ATP, Perkin Elmer) and 800 μM target peptide (ASELPASQPQPFSAKKK (SEQUENCE ID NO: 1)).
Assays are carried out at 25° C. in the presence of 5 nM full-length ATR. An assay stock buffer solution is prepared containing all of the reagents listed above, with the exception of ATP and the test compound of interest. 13.5 μL of the stock solution is placed in a 96 well plate followed by addition of 2 μL of DMSO stock containing serial dilutions of the test compound (typically starting from a final concentration of 15 μM with 3-fold serial dilutions) in duplicate (final DMSO concentration 7%). The plate is pre-incubated for 10 minutes at 25° C. and the reaction initiated by addition of 15 μL [γ-33P]ATP (final concentration 10 μM).
The reaction is stopped after 24 hours by the addition of 30 μL 0.1M phosphoric acid containing 2 mM ATP. A multiscreen phosphocellulose filter 96-well plate (Millipore, Cat no. MAPHN0B50) is pretreated with 100 μL 0.2M phosphoric acid prior to the addition of 45 μL of the stopped assay mixture. The plate is washed with 5×200 μL 0.2M phosphoric acid. After drying, 100 μL Optiphase ‘SuperMix’ liquid scintillation cocktail (Perkin Elmer) is added to the well prior to scintillation counting (1450 Microbeta Liquid Scintillation Counter, Wallac).
After removing mean background values for all of the data points, Ki(app) data are calculated from non-linear regression analysis of the initial rate data using the Prism software package (GraphPad Prism version 3.0cx for Macintosh, GraphPad Software, San Diego Calif., USA).

intracellular ATR = molecular target: T2, intracellular ATR (Homo sapiens, UniProt Q13535); experiment: Cellular ATR inhibition assay (H2AX phosphorylation in hydroxyurea treated HT29 cells); assay type: cell-based; details: 2 mM hydroxyurea, phosphorylated H2AX-positive nuclei
T2 construct: endogenous in cells; host or cells: HT29
T2 sequence (Q13535 whole entry): as above
T2 sequence (Q8WXE1 whole entry partner): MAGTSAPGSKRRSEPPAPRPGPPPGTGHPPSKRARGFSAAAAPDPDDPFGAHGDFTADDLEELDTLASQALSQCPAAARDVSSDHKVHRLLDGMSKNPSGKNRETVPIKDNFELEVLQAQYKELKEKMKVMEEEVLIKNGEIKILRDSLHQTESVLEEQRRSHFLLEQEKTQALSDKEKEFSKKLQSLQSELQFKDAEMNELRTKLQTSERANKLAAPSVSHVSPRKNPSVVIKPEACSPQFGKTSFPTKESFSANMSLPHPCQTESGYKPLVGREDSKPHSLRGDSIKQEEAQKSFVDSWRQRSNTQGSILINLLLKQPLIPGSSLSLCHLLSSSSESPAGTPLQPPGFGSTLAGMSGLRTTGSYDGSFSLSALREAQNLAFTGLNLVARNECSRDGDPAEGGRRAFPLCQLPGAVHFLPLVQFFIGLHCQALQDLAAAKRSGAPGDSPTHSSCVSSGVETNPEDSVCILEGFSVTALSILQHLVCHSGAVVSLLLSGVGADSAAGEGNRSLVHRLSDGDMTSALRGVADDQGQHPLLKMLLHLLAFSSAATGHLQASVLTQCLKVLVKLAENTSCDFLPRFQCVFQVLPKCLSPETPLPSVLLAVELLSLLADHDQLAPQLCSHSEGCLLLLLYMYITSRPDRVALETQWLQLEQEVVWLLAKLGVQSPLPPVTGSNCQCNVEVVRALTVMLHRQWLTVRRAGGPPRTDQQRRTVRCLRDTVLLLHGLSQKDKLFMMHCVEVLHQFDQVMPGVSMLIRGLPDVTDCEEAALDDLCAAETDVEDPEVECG
Method: Compounds can be screened for their ability to inhibit intracellular ATR using an immunofluorescence microscopy assay to detect phosphorylation of the ATR substrate histone H2AX in hydroxyurea treated cells. HT29 cells are plated at 14,000 cells per well in 96-well black imaging plates (BD 353219) in McCoy's 5A media (Sigma M8403) supplemented with 10% foetal bovine serum (JRH Biosciences 12003), Penicillin/Streptomycin solution diluted 1:100 (Sigma P7539), and 2 mM L-glumtamine (Sigma G7513), and allowed to adhere overnight at 37° C. in 5% CO2. Compounds are then added to the cell media from a final concentration of 25 μM in 3-fold serial dilutions and the cells are incubated at 37° C. in 5% CO2. After 15 min, hydroxyurea (Sigma H8627) is added to a final concentration of 2 mM.
After 45 min of treatment with hydroxyurea, the cells are washed in PBS, fixed for 10 min in 4% formaldehyde diluted in PBS (Polysciences Inc 18814), washed in 0.2% Tween-20 in PBS (wash buffer), and permeabilised for 10 min in 0.5% Triton X-100 in PBS, all at room temperature. The cells are then washed once in wash buffer and blocked for 30 min at room temperature in 10% goat serum (Sigma G9023) diluted in wash buffer (block buffer). […]
Cells are imaged for Alexa Fluor 488 and Hoechst intensity using the BD Pathway 855 Bioimager and Attovision software (BD Biosciences, Version 1.6/855) to quantify phosphorylated H2AX Ser139 and DNA staining, respectively. The percentage of phosphorylated H2AX-positive nuclei in a montage of 9 images at 20× magnification is then calculated for each well using BD Image Data Explorer software (BD Biosciences Version 2.2.15). […] The percentage of H2AX positive nuclei is finally plotted against concentration for each compound and IC50s for intracellular ATR inhibition are determined using Prism software (GraphPad Prism version 3.0cx for Macintosh, GraphPad Software, San Diego Calif., USA).

[2] = system: HCT116 colorectal cancer cells; experiment: Cisplatin sensitization assay, 96 h cell viability (MTS); assay type: cell-based; details: concentration of compound required to reduce the IC50 of Cisplatin alone by at least 3-fold; HCT116, 96 h
Method: Compounds can be screened for their ability to sensitize HCT116 colorectal cancer cells to Cisplatin using a 96 h cell viability (MTS) assay. […] Compounds and Cisplatin are then both added simultaneously to the cell media in 2-fold serial dilutions from a top final concentration of 10 μM as a full matrix of concentrations in a final cell volume of 200 μl, and the cells are then incubated at 37° C. in 5% CO2. After 96 h, 40 μl of MTS reagent (Promega G358a) is added to each well and the cells are incubated for 1 h at 37° C. in 5% CO2. Finally, absorbance is measured at 490 nm using a SpectraMax Plus 384 reader (Molecular Devices) and the concentration of compound required to reduce the IC50 of Cisplatin alone by at least 3-fold (to 1 decimal place) can be reported.

[3] = Pharmacokinetics (noncompartmental, blood or plasma); details: in vivo, intravenous (IV) dosing
Description: Noncompartmental pharmacokinetic parameters can be analyzed using Watson Bioanalytical LIMS (Version 7.4; Thermo Fisher Scientific) from either the blood or plasma samples. The following parameters are estimated following intravenous (IV) dosing; terminal elimination half-life (T1/2=ln(2)/λz, where λz is the first order rate constant associated with the terminal (log-linear) portion of the curve. The area under the curve (AUClast=area under the curve from the time of dosing to the last measurable concentration). The area under the curve extrapolated to infinity (AUC0-∞=AUClast+Clast/λz). The clearance (Cl; Cl=DoseIV/AUC0-∞).
The area under the first moment curve (AUMClast=area under the concentration times time versus time curve from the time of dosing to the last measurable concentration). The area under the first moment curve extrapolated to infinity (AUMC0-∞=AUMClast+Clast×t/λz+Clast/λz^2). The mean residence time (MRT=AUMC0-∞/AUC0-∞) and the steady state volume of distribution (Vdss=MRT×Cl).
Clearance and volume of distribution can also be obtained using methods known to one of skill in the art (see e.g., Handbook of Essential Pharmacokinetics, Pharmacodynamics and Drug Metabolism for Industrial Scientists, Younggil Kwon, pp 18-28 (Non-compartmental Approach)).

Colo205 model = experiment: COLO205 model with irinotecan as the DNA damaging agent; assay type: in vivo, mouse
Description: (§1) T/C=tumour size of treatment group compared with control group

primary NSCLC model = experiment: Primary non-small cell lung cancer (NSCLC) model with cisplatin as the DNA damaging agent; assay type: in vivo, mouse
Description: as §1

[4] = Mouse PO/PK in tumor (FIG. 6); assay type: in vivo; details: mouse grafted with tumors, compared with Compound P-110
Description: FIG. 6: Mouse PO/PK in tumor

Row | Compound | pIC50 [1] | pKi (full-length ATR) | pIC50 (intracellular ATR) | Cisplatin sensitization [2] | clearance [3] | half-life [3] | Vd ([3]; read-out: Vss) | % T/C (tumour size of treatment group compared with control group) (Colo205 model; day 13, irinotecan 20 mg/kg, compound 40 mg/kg PO qd3 of a four-day cycle, five cycles) | Effect on tumors (Colo205 model; irinotecan 20 mg/kg, compound orally as a solution 40 mg/kg, PO qd3, five cycles) | Effect on tumors (primary NSCLC model; cisplatin 3 mg/kg, compound 30 mg/kg uid q2d) | % T/C (tumour size of treatment group compared with control group) (primary NSCLC model; day 20, cisplatin 3 mg/kg, compound 30 mg/kg uid q2d) | Oral exposure in tumors [4] | Sensitization (Colo205 model; same model (irinotecan), compound 45 mg/kg twice a day (bid)) | Sensitisation (primary NSCLC model; same model (cisplatin), compound 30 mpk bid (on/1 day off))
1 | CC(C)S(=O)(=O)c1ccc(-c2cnc(N)c(-c3cc(-c4ccc(CNC5CCOCC5)cc4)no3)n2)cc1 [Compound I-1] | 7.08 | 9.85 | 7.89 | 39 nM | 7.1 mL/min/kg | 4.7 h | 2.8 L/kg | 10.9% | marked regression of tumors | marked regression of tumors | 1.7% | created oral exposure in tumors compared with Compound P-110 |  | 
2 | CC(C)S(=O)(=O)c1ccc(-c2cnc(N)c(-c3cc(-c4ccc(CN[C@H]5CCOC5)cc4)no3)n2)cc1 [P-110 (S), reference compound] | 6.55 | 9.59 | 7.34 | 156 nM |  |  |  |  |  |  |  |  |  | 
3 | CC(C)S(=O)(=O)c1ccc(-c2cnc(N)c(-c3cc(-c4ccc(CN[C@@H]5CCOC5)cc4)no3)n2)cc1 [P-110 (R), reference compound] | 6.69 | 9.54 | 7.27 | 78 nM | 12.7 mL/min/kg | 2.7 h |  |  |  |  |  |  |  | 
4 | [2H]C([2H])([2H])C([2H])(C([2H])([2H])[2H])S(=O)(=O)c1ccc(-c2cnc(N)c(-c3cc(-c4ccc(CNC5CCOCC5)cc4)no3)n2)cc1 [Compound II-2, 5-[4-[1,2,2,2-tetradeuterio-1-(trideuteriomethyl)ethyl]sulfonylphenyl]-3-[3-[4-[(tetrahydropyran-4-ylamino)methyl]phenyl]isoxazol-5-yl]pyrazin-2-amine] | 7.23 | 9.98 |  | 39 nM |  |  |  |  |  |  |  |  |  | 
5 | CC(C)S(=O)(=O)c1ccc(-c2cnc(N)c(-c3cc(-c4ccc(CN[C@H]5CCOC5)cc4)no3)n2)cc1 [Compound P-110, reference compound] |  |  |  |  |  |  |  |  |  |  |  |  | no sensitization | no sensitisation
